{"source": "paper PMC4885489", "about": "“Prediction of Drug-Drug Interactions Arising from CYP3A induction Using a Physiologically Based Dynamic Model” (Drug Metabolism and Disposition, 2016)", "key": {"[1]": {"settings": "cited from earlier work"}, "[2]": {"settings": "human, in vivo"}, "[3]": {"settings": "cited from earlier work", "remark": "listed apart in the source"}, "CYP3A [4]": {"tested_on": "CYP3A", "settings": "mean of four human hepatocyte donors; three-parameter fit; Indmax = Emax + 1"}, "[5]": {"settings": "cited from earlier work", "remark": "listed apart in the source"}, "CYP3A [6]": {"tested_on": "CYP3A", "settings": "mean of four human hepatocyte donors; three-parameter fit; Indmax = Emax + 1", "remark": "listed apart in the source"}, "rCYP2C19 [7]": {"tested_on": "rCYP2C19", "assay": "Recombinant enzyme metabolism kinetics, rCYP2C19", "settings": "Calculated from CLiv using retrograde model"}, "CYP2B6": {"tested_on": "CYP2B6", "set-up": "method as in ref (Hariparsad et al., 2008)", "settings": "ref (Hariparsad et al., 2008), cited from earlier work"}, "rCYP2C19 [8]": {"tested_on": "rCYP2C19", "settings": "read-out: rCYP2C19 Km; ref (Giancarlo et al., 2001); (Bajpai et al., 1996); cited from earlier work"}, "rCYP2C9 [9]": {"tested_on": "rCYP2C9", "settings": "read-out: rCYP2C9 Km; ref (Rowland et al., 2008); cited from earlier work"}, "[10]": {"settings": "ref Meta-analysis (Odar-Cederlof and Borga, 1974); (Tassaneeyakul et al., 1992); (Ducharme et al., 1995) and 3 others; cited from earlier work"}, "CYP2C9": {"tested_on": "CYP2C9", "set-up": "method as in ref (Sahi et al., 2009)", "settings": "ref (Sahi et al., 2009), cited from earlier work"}, "[11]": {"settings": "Monoprotic Acid; ref Meta-analysis (Pade and Stavchansky, 1998); (Avdeef et al., 2000); (Taillardat-Bertschinger et al., 2002); (Loeuillet-Ritzler and Faller, 2004); cited from earlier work"}, "[12]": {"settings": "ref (Kurata and Wilkinson, 1974); cited from earlier work"}, "in vitro": {"assay": "in vitro", "settings": "human, human liver microsomes"}, "CYP3A [13]": {"tested_on": "CYP3A", "assay": "in vitro", "settings": "human, cryopreserved human hepatocytes"}, "CYP3A [14]": {"tested_on": "CYP3A", "assay": "in vitro", "settings": "human, cryopreserved human hepatocytes, probe testosterone (6β-hydroxytestosterone formation)"}, "rCYP2C9 [15]": {"tested_on": "rCYP2C9", "assay": "Recombinant enzyme metabolism kinetics, rCYP2C9", "settings": "Calculated from CLiv using retrograde model"}}, "note": "Read-outs that look alike come from different tables or passages of the source."}
{"molecule": "CCC1(c2ccccc2)C(=O)NC(=O)NC1=O", "note": "[Phenobarbital, phenobarbital]", "values": [{"measurement": "CLR", "setting": "[1]; in vivo", "result": 0.07, "unit": "L/h"}, {"measurement": "fe", "setting": "[1]; in vivo", "result": 0.24}, {"measurement": "ka", "setting": "[2]", "result": 2, "unit": "h⁻¹"}, {"measurement": "Vss (Minimal PBPK)", "setting": "[3]; in vivo", "result": 0.54, "unit": "L/kg"}, {"measurement": "mRNA Indmax", "setting": "CYP3A [4]", "result": 44.2, "unit": "fold"}, {"measurement": "fa", "setting": "[5]; ref (Varma et al., 2012)", "result": 1}, {"measurement": "Activity Indmax", "setting": "CYP3A [6]", "result": 21.1, "unit": "fold"}]}
{"molecule": "O=C1NC(=O)C(c2ccccc2)(c2ccccc2)N1", "note": "[Phenytoin, phenytoin]", "values": [{"measurement": "rCYP2C19 Vmax", "setting": "rCYP2C19 [7]", "result": 1.53, "unit": "pmol/min/pmol"}, {"measurement": "CLR", "setting": "[1]; from fe 0.008, ref (Kozelka and Hine, 1943), (Borga et al., 1979)", "result": 0.015, "unit": "L/h"}, {"measurement": "fe", "setting": "[1]; ref (Kozelka and Hine, 1943), (Borga et al., 1979)", "result": 0.008}, {"measurement": "CLiv", "setting": "[1]; ref Meta-analysis (Gugler et al., 1976), (Glazko et al., 1969), (Lund et al., 1974), (Perucca et al., 1978)", "result": 1.88, "unit": "L/h"}, {"measurement": "CYP2B6 Indmax (Fold, Emax +1)", "setting": "CYP2B6", "result": 1.9, "unit": "Fold"}, {"measurement": "EC50", "setting": "CYP2B6; read-out: CYP2B6 IndC50", "result": 15.3, "unit": "µM"}, {"measurement": "Km", "setting": "rCYP2C19 [8]", "result": 36.8, "unit": "µM"}, {"measurement": "Vss (Minimal PBPK)", "setting": "[3]; ref Meta-analysis (Gugler et al., 1976), (Odar-Cederlof and Borga, 1974), (Glazko et al., 1969), (Lund et al., 1974), (Perucca et al., 1978)", "result": 0.57, "unit": "L/kg"}, {"measurement": "Km", "setting": "rCYP2C9 [9]", "result": 4.1, "unit": "µM"}, {"measurement": "fu", "setting": "[10]", "result": 0.10}, {"measurement": "CYP2C9 Indmax (Fold, Emax +1)", "setting": "CYP2C9", "result": 10.7, "unit": "Fold"}, {"measurement": "EC50", "setting": "CYP2C9; read-out: CYP2C9 IndC50", "result": 9.8, "unit": "µM"}, {"measurement": "pKa(s)", "setting": "[11]", "result": 8.15}, {"measurement": "B:P", "setting": "[12]", "result": 0.61}, {"measurement": "microsomal CLint", "setting": "in vitro", "result": 0.97, "unit": "µL/min/mg"}, {"measurement": "mRNA Indmax", "setting": "CYP3A [4]", "result": 24.5, "unit": "fold"}, {"measurement": "EC50", "setting": "CYP3A [13]", "result": 123, "unit": "µM"}, {"measurement": "EC50", "setting": "CYP3A [14]", "result": 51.3, "unit": "µM"}, {"measurement": "rCYP2C9 Vmax", "setting": "rCYP2C9 [15]", "result": 0.24, "unit": "pmol/min/pmol"}, {"measurement": "fa", "setting": "[5]; ref (Bochner et al., 1973)", "result": 0.9}, {"measurement": "ka", "setting": "[5]; ref (Tassaneeyakul et al., 1992)", "result": 0.53, "unit": "h⁻¹"}, {"measurement": "Activity Indmax", "setting": "CYP3A [6]", "result": 13.6, "unit": "fold"}]}
